According to patent US20250340561A1, “QUINAZOLINE COMPOUND FOR INDUCING DEGRADATION OF G12D MUTANT KRAS PROTEIN” (Astellas Pharma Inc., priority 2021, published 2025):
Structures can show the parent of a compound that is named as a salt.

biological target: T1, KRAS G12D (Homo sapiens, UniProt P01116, G12D); assay: Test Example 1-1: KRAS degradation action in AsPC-1, sandwich ELISA; assay type: cell-based; details: AsPC-1 cells, 24 hours treatment, corrected with β-actin, 0% = 10 μM Example No. 7
T1 construct: host or cells: AsPC-1 human pancreatic cancer cells
Procedure: Test Example 1-1: Evaluation of KRAS Degradation Action on Human G12D Mutant KRAS-Positive Pancreatic Cancer Line AsPC-1
The KRAS degradation action of test compounds was evaluated by measuring the expression levels of KRAS G12D by a sandwich ELISA method.
AsPC-1 cells (ATCC, CRL-1682) were seeded at 90 μL per well on a 96-well plate (from IWAKI) to give 1.8×10^4 cells per well. As for the cell culture conditions, RPMI 1640 medium (from Merck) containing 10% fetal bovine serum (from Cytiva) was used in the presence of 5% CO2 at 37° C.
The next day, the test compounds (10 points having final concentrations in the range of 10 μM to 0.3 nM) were diluted 100-fold with a fresh medium and were added at 10 μL per well. The same treatments were each applied to 4 wells. In addition, in production of the sandwich ELISA plate, a capture antibody (anti-KRAS antibody, from LS Bio) mixed in Phosphate Buffered Saline [PBS; from FUJIFILM Wako Pure Chemical Corporation] in 1,000-fold dilution was added at 20 μL per well to a Maxisorp 384-well plate (from Thermo Scientific), and after attaching a seal, the plate was allowed to stand at 4° C. overnight.
After 24 hours of the test compound treatment, the culture supernatant was discarded. Immediately, a cytolytic solution (produced by adding, to a RIPA buffer [from Thermo Scientific], a Halt Protease Phosphatese Inhibitor Cocktail [from Thermo Scientific] and Benzonase Nuclease [from Merck] in amounts of 1/100 and 1/500, respectively) was added at 50 μL per well, and the cells were lysed. Then, equally treated 4 wells were combined to prepare a cell lysate sample of 200 μL in total. For KRAS detection, the Maxisorp 384-well plate which had been treated with the capture antibody since the previous day was washed (twice with 25 μL each) with 0.05% Tween-20-containing PBS (from Thermo Scientific; 20×PBS Tween-20 was diluted 20-fold with ion exchange water and used) and was treated with a blocking solution (Intercept Blocking Buffer; from LI-COR Biosciences) for 60 minutes, and then, the cell lysate samples were added at 20 μL per well. For 3-actin detection, the cell lysate samples were added as they were at 20 μL per well to the Maxisorp 384-well plate, and after attaching a seal, the plate was allowed to stand at 4° C. overnight.
The next day, after washing the KRAS detection plate with 0.05% Tween-20-containing PBS, an anti-Ras (G12D mutant specific) antibody (from Cell Signaling Technology) diluted 1,000-fold with a blocking solution was added at 20 μL per well as a detection antibody, and the plate was allowed to stand for 5 hours at room temperature. Then, the plate was centrifuged to remove the supernatant (using a centrifugal dehydrator machine, the supernatant was removed by the same method hereinafter) and was washed with 0.05% Tween-20-containing PBS. Then, an anti-Rabbit IgG […] antibody (from Cell Signaling Technology) diluted 1,000-fold with a blocking solution was added at 20 μL per well as a secondary antibody, and the plate was allowed to stand for 1 hour at room temperature. The plate was centrifuged to remove the supernatant and was washed with 0.05% Tween-20-containing PBS. Then, a BM chemiluminescent ELISA substrate (from Merck) was added at 20 μL per well, and the amounts of luminescence were measured with 2103 EnVision (from PerkinElmer). In addition, the 3-actin detection plate was washed with 0.05% Tween-20-containing PBS and was treated with a blocking solution for 60 minutes, and then, an anti-β-actin antibody (from Abcam) diluted 1,000-fold with a blocking solution was added at 20 μL per well as a detection antibody. The plate was allowed to stand for 5 hours at room temperature. Then, the plate was centrifuged to remove the supernatant and washed with 0.05% Tween-20-containing PBS, and then, an anti-Mouse IgG RP-linked antibody (from Cell Signaling Technology) diluted 1,000-fold with a blocking solution was added at 20 μL per well as a secondary antibody. […]

T1 sequence (P01116 1-188 isoform P01116-2 G12D): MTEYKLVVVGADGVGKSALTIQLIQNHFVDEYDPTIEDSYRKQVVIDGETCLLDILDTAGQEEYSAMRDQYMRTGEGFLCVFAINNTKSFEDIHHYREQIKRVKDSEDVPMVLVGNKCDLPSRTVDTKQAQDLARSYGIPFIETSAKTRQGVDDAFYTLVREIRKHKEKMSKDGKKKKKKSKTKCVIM

Row | SMILES | DC50
1 | Cc1ncsc1-c1ccc(CNC(=O)[C@@H]2C[C@@H](O)CN2C(=O)[C@H](C(C)C)n2cc(-c3ccc(COc4c(-c5c(C)c(F)cc6[nH]ncc56)c(C5CC5)cc5c(N6C[C@@H]7C[C@H]6CN7)nc(OC6CCOCC6)nc45)cc3)nn2)cc1 [Example 10] | 124 nM
2 | CCc1ccncc1Oc1nc(N2C[C@@H]3C[C@H]2CN3)c2cc(C3CC3)c(-c3c(C)c(F)cc4[nH]ncc34)c(OCc3ccc(-c4cn([C@H](C(=O)N5C[C@H](O)C[C@H]5C(=O)N[C@@H](CO)c5ccc(-c6scnc6C)cc5)C(C)C)nn4)cc3)c2n1 [Example 25] | 44 nM
3 | Cc1c(F)cc2[nH]ncc2c1-c1c(C2CC2)cc2c(N3C[C@@H]4C[C@H]3CN4)nc(OC3CCOCC3)nc2c1OCc1ccc(-c2cn([C@H](C(=O)N3C[C@H](O)C[C@H]3C(=O)N[C@@H](CO)c3ccc(-c4scnc4CO)cc3)C(C)C)nn2)cc1 [Example 18, (4R)-1-[(2S)-2-(4-{4-[({6-cyclopropyl-4-[(1S,4S)-2,5-diazabicyclo[2.2.1]heptan-2-yl]-7-(6-fluoro-5-methyl-1H-indazol-4-yl)-2-[(oxan-4-yl)oxy]quinazolin-8-yl}oxy)methyl]phenyl}-1H-1,2,3-triazol-1-yl)-3-methylbutanoyl]-4-hydroxy-N-[(1R)-2-hydroxy-1-{4-[4-(hydroxymethyl)-1,3-thiazol-5-yl]phenyl}ethyl]-L-prolinamide n hydrochloride] | 74 nM
4 | CCOc1nc(N2C[C@@H]3C[C@H]2CN3)c2cc(C3CC3)c(-c3c(C)c(F)cc4[nH]ncc34)c(OCc3ccc(C(=O)N[C@H](C(=O)N4C[C@H](O)C[C@H]4C(=O)N[C@@H](CO)c4ccc(-c5scnc5C)cc4)C(C)C)cc3)c2n1 [Example 5] | 153 nM
5 | Cc1c(F)cc2[nH]ncc2c1-c1c(C2CC2)cc2c(N3C[C@@H]4C[C@H]3CN4)nc(OC3CCOCC3)nc2c1OCc1ccc(-c2cn([C@H](C(=O)N3C[C@H](O)C[C@H]3C(=O)N[C@@H](CO)c3ccc(Br)cc3)C(C)C)nn2)cc1 [Example 12] | 136 nM
6 | Cc1ncsc1-c1ccc(C2(NC(=O)[C@@H]3C[C@@H](O)CN3C(=O)[C@H](C(C)C)n3cc(-c4ccc(COc5c(-c6c(C)c(F)cc7[nH]ncc67)c(C6CC6)cc6c(N7C[C@@H]8C[C@H]7CN8)nc(OC7CCOCC7)nc56)cc4)nn3)CC2)cc1 [Example 6] | 103 nM
7 | Cc1ncsc1-c1ccc([C@H](CF)NC(=O)[C@@H]2C[C@@H](O)CN2C(=O)[C@H](C(C)C)n2cc(-c3ccc(COc4c(-c5c(C)c(F)cc6[nH]ncc56)c(C5CC5)cc5c(N6C[C@@H]7C[C@H]6CN7)nc(OC6CCOCC6)nc45)cc3)nn2)cc1 [Example 17] | 92 nM
8 | Cc1c(F)cc2[nH]ncc2c1-c1c(C2CC2)cc2c(N3C[C@@H]4C[C@H]3CN4)nc(OC3CCOCC3)nc2c1OCc1ccc(-c2cn([C@H](C(=O)N3C[C@H](O)C[C@H]3C(=O)N[C@@H](CO)c3ccc(-c4ccnn4C)cc3)C(C)C)nn2)cc1 [Example 22] | 62 nM
9 | Cc1ncsc1-c1ccc([C@H](CO)NC(=O)[C@@H]2C[C@@H](O)CN2C(=O)C(C(C)C)n2cc(-c3ccc(COc4c(-c5c(C)c(F)cc6[nH]ncc56)c(C5CC5)cc5c(N6C[C@@H]7C[C@H]6CN7)nc(OC6CCOCC6)nc45)cc3)cn2)cc1 (single isomer, unassigned) [Example 11] | 178 nM
10 | Cc1c(F)cc2[nH]ncc2c1-c1c(C2CC2)cc2c(N3C[C@@H]4C[C@H]3CN4)nc(OC3CCOCC3)nc2c1OCc1ccc(-c2cn([C@H](C(=O)N3C[C@H](O)C[C@H]3C(=O)N[C@@H](CO)c3ccc(F)cc3)C(C)C)nn2)cc1 [Example 13] | 151 nM
